Values of other authors in patent US6211152A, “Formulations for peptide release” (Peptech Limited, priority 1995, dated 2001).

Key:
prostate cancer in rats = settings: microencapsulated form, controlled dose over 30 days, vs daily subcutaneous equivalent or double doses of free peptide
dogs/bitches = settings: overdosing dogs/bitches

| Compound | suppressing serum testosterone levels and prostate tumour weight (prostate cancer in rats) | period of shut down of reproductive function (dogs/bitches) |
| --- | --- | --- |
| [D Trp^6 ] LH-RH | more effective |  |
| CC(C)C[C@H](NC(=O)[C@@H](Cc1ccc2ccccc2c1)NC(=O)[C@H](Cc1ccc(O)cc1)NC(=O)[C@H](CO)NC(=O)[C@H](Cc1c[nH]c2ccccc12)NC(=O)[C@H](Cc1c[nH]cn1)NC(=O)[C@@H]1CCC(=O)N1)C(=O)N[C@@H](CCCNC(=N)N)C(=O)N1CCC[C@H]1C(=O)NCC(N)=O [nafarelin] |  | three to eighteen |
